Values quoted from earlier work, collected in patent publication US12414956B2, “Method for smoking cessation” (CALISTA CAPITAL, LLC, priority 2017, dated 2025).
Like-named read-outs stand apart in the source and are kept apart here.

How the values were obtained:
[1] = after six months, clinical trials
[2] = mean, capsules, adult subjects, plasma

| SMILES | success rate [1] [%] | AUC ([2]; single 300 mg oral dose) [ng·h/mL] | Cmax ([2]; single 300 mg oral dose) [ng/mL] | tmax ([2]; single 300 mg oral dose) [h] | AUC ([2]; single 600 mg oral dose) [ng·h/mL] | Cmax ([2]; single 600 mg oral dose) [ng/mL] | tmax ([2]; single 600 mg oral dose) [h] |
| --- | --- | --- | --- | --- | --- | --- | --- |
| c1cnc2cc3c(cc2n1)[C@@H]1CNC[C@H]3C1 [CHANTIX, varenicline] | 14 |  |  |  |  |  |  |
| C=CC1=C(C(=O)O)N2C(=O)[C@@H](NC(=O)/C(=N\O)c3csc(N)n3)[C@H]2SC1 [Cefdinir, cefdinir] |  | 7050 | 1600 | 2.9 | 11100 | 2870 | 3.0 |
